Legend:
neutrophils [1] = assay: Neutrophil apoptosis/survival by phosphatidylserine externalization after annexin-V and 7-AAD labeling; format: cell-based, human; details: 15 h at 37° C.; anti-Fas mAb 10 ng/ml, gliotoxin 2 mg/ml
Procedure: Analysis of apoptosis. Neutrophil apoptosis was triggered by incubating neutrophils at 37° C. alone (constitutive apoptosis) or with anti-Fas mAb (10 ng/ml; Beckman-Coulter) or gliotoxin ([…]; Sigma) (Ward et al. 1999, J. Biol. Chem. 274:4309-4318) for the indicated times. Neutrophil apoptosis was evaluated by phosphatidylserine externalization after annexin-V and 7-AAD labeling (Kantari et al. 2007, Blood 110:4086-4095); mitochondrial depolarization after DiOC6 labeling (Moriceau et al. 2009, J. Immuno1.182:7254-7263); caspase-3 and caspase-8 activities measured by spectrophotometry (Biovision) in neutrophil lysates. In DMF-differentiated-PLB985 cells, apoptosis was triggered by gliotoxin or by rTRAIL (10 ng/ml; RD System) (Yin et al. 2005, Int. J. Biochem. Cell Biol. 37:1696-1708) and caspase-8 and caspase-9 activities were determined after gating on CD11b^+ cells using the Caspase-Glow® assay (Promega). Apoptosis-induced chromatin condensation and DNA fragmentation were assessed, respectively, after DNA staining with the blue fluorescent dye Hoechst (5 mg/ml) and propidium-iodide staining (Goepel et al. 2004, J. Leukoc. Biol. 75:836-843). Carboxyp21 ([…], SEQ ID NO: 24) corresponding to the p21 carboxy-terminus sequence (residues 141-160) and containing a RYIRS carboxy-terminal extension to facilitate its cell entry was synthesized and purified (Genecust). A modified peptide in which the charged amino acids responsible for its binding to PCNA have been changed according to dynamic simulation studies ([…], SEQ ID NO: 25) served as control. The effect of PS-341 (LC Laboratories) and MG132 were tested on neutrophil apoptosis and PCNA expression as indicated.

BM neutrophils = assay: Apoptosis of BM-isolated mouse neutrophils by annexin-V labelling; format: cell-based; details: increasing gliotoxin concentrations
Procedure: In vivo model of LPS-induced airway inflammation. Peripheral blood neutrophils and BM mature neutrophils from femurs were isolated using Percoll density gradient, as described in Mocsai et al. (2002, Immunity 16:547-558). Intranasal LPS administration in mice and collection of cells from BALF was performed as described in Chignard et al. (2000, Am. J. Physiol. Lung Cell Mol. Physiol. 279:L1083-1090). Mice were treated in accordance with Inserm guidelines in compliance with European animal-welfare regulations. Seven-week-old male C57B1/6 mice, weighing 25-30 g (Charles Rivers), were anesthetized by intra-muscular injection of a mixture of ketamine and xylasine, and then 330 μg/kg of LPS dissolved in 50 μl of saline were deposited intranasally. At different times, animals were killed by an intraperitoneal injection of a lethal dose of sodium pentobarbital (Sanofi) to isolate lung neutrophils. The trachea of each mouse was then cannulated and BAL performed with a syringe and multiple cycles of saline instillation (0.5 ml) and aspiration to obtain a BALF volume of 4 ml. The latter was centrifuged, pelleted cells were collected and differential cell counts made after cytospin centrifugation and staining with Diff-Quik products. BAL neutrophils were isolated by Ficoll density gradient centrifugation. […]

neutrophils [2] = details: report; cited from earlier work
[3] = report; cited from earlier work

CN1C(=O)[C@]23CC4=CC=C[C@H](O)[C@H]4N2C(=O)[C@@]1(CO)SS3 [gliotoxin, reference compound]
Increase of annexin-V+ 7-AAD− cells (neutrophils [1]): further enhanced
Apoptosis of BM neutrophils by annexin-V labelling (BM neutrophils): trigger apoptosis in BM neutrophils in a dose-dependent manner

CC[C@H](CO)Nc1nc(NCc2ccccc2)c2ncn(C(C)C)c2n1 [roscovitine]
Neutrophil apoptosis (neutrophils [2]): triggers neutrophil apoptosis
Inflammation resolution in vivo [3]: promotes inflammation resolution in vivo

— patent US20130059773A1, “COMPOUNDS FOR THE TREATMENT OF INFLAMMATION AND NEUTROPENIA” (priority 2010, published 2013)
